In patent publication US6656710B2, “Process for the production of amino acids using racemase and acylase” (priority 2000, dated 2003):

Key:
Assay type in all cases: biochemical
[1] = system: L-acylase from Aspergillus oryzae; assay: L-acylase activity assay, producing L-Met from Moc-L-Met; conditions: Moc-L-Met 25 mM, Tris/HCl 50 mM pH 8.0, cobalt chloride 6 mM, L-Acylase 2.0 U, final volume 200 μL; L-Met detected by RP HPLC
Text: Moc-L-Met was used in an assay to determine the activity of the L-acylase from Aspergillus oryzae. A. Producing L-Met from Moc-L-Met [table] D-Met and L-Met were detected by reverse phase HPLC (RP 18). The unit data for the enzymes refer to specific activity with N-Ac-L-Met and N-Ac-D-Met as substrate.

[2] = system: D-acylase from Aspergillus oryzae in the presence of an N-acetylamino acid racemase (AAR) from Amycolatopsis orientalis subsp. lurida; assay: D-acylase activity assay in the presence of AAR, producing D-Met from Moc-L-Met; conditions: Moc-L-Met 25 mM, Tris/HCl 50 mM pH 8.0, cobalt chloride 6 mM, D-Acylase 2.4 U, AAR 0.4 U, final volume 200 μL; D-Met detected by RP HPLC
Text: B. Producing D-Met from Moc-L-Met Moc-L-Met was used in an assay to determine the activity of the D-acylase from Aspergillus oryzae in the presence of an N-acetylamino acid racemase (AAR) from Amycolatopsis orientalis subsp. lurida. [table] D-Met and L-Met were detected by reverse phase HPLC (RP 18). The unit data for the enzymes refer to specific activity with N-Ac-L-Met and N-Ac-D-Met as substrate.

[3] = system: N-acetylamino acid racemase (AAR) from Amycolatopsis orientalis subsp. lurida; assay: Racemase activity assay of recombinant N-acetylamino acid racemase (polarimeter); conditions: substrate 25 mM, Tris/HCl 50 mM pH 8.0, cobalt chloride 6 mM, ca. 150 μg AAR, 30° C., 3 to 12 hours, λ=365 nm
Procedure: Detection of the racemase activity of a recombinant N-acetylamino acid racemase AAR enzyme The substrate spectrum of the N-acetylamino acid racemase (AAR) from Amycolatopsis orientalis subsp. lurida was tested with the enzyme assay described herein below. The composition of the assay was as follows: [table] Enantiomer-pure amino acid derivatives were used in the assay and the formation of the corresponding racemate was followed using a polarimeter (Perkin-Elmer 241). The incubation was carried out at 30° C. (heatable cell) for 3 to 12 hours. The measurements were made at a wavelength of λ=365 nm.

Volume activity [1]: 1.4 U/ml
Volume activity [2]: 0.6 U/ml
Specific Activity of the AAR [3]: 42 mU/mg
SMILES: COC(=O)N[C@@H](CCSC)C(=O)O [N-methyloxycarbonyl-L-Met]
